The values below come from the SangsterLogP compilation.

In general, logP refers to the decadic logarithm of the partition coefficient of the neutral form, usually between octanol and water. Read a high logP as higher lipophilicity.

The molecule `N=c1nc(N)c(N2CCCC2)cn1O` showed a logP of 0.84. For the molecule `CCN(CC)c1cc(N)[n+]([O-])c(N)n1`, the logP turned out to be 1.16. In the case of `CCCCN(CCCC)c1cc(N)[n+]([O-])c(N)n1`, the logP was 3.19. Under `CCCCNc1cc(N)[n+]([O-])c(N)n1` stands 1.02. Consider `C=CCN(CC=C)c1cc(N)[n+]([O-])c(N)n1`, for which the log partition coefficient (logP) was 1.6. For the molecule `CCCCCCCCCCNc1cc(N)[n+]([O-])c(N)n1`, the lipophilicity (logP) was found to be 4.08.

On to `CNc1cc(N)[n+]([O-])c(N)n1`, for which the log partition coefficient (logP) was -0.49.

`CN(C)c1cc(N)[n+]([O-])c(N)n1` came in with a log partition coefficient (logP) of 0.16.

`Nc1cc(N2CCOCC2)nc(N)[n+]1[O-]` returned a lipophilicity (logP) of 0.36. In the case of `Nc1cc(NC2CCCCC2)nc(N)[n+]1[O-]`, the logP is 1.62. `CCCN(CCC)c1cc(N)[n+]([O-])c(N)n1`: the logP came to 2.16. The value for `Nc1cc(N(C2CCCCC2)C2CCCCC2)nc(N)[n+]1[O-]` was 3.89; that for `CCNc1cc(N)[n+]([O-])c(N)n1` was -0.04.
